Test results as given in PubChem BioAssay (NCI).
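Protocol summary: plate cells (96-well), add compound at 5 concentrations, incubate 48 h, interpolate endpoints linearly. TGI: concentration producing complete growth inhibition.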

How the values were obtained:
Experiment in all cases: growth of human tumour cells (NCI), 48 h
EKVX NSCLC = tested on: EKVX NSCLC
K-562 leukemia = tested on: K-562 leukemia
SF-539 CNS = tested on: SF-539 CNS
MDA-MB-435 = tested on: MDA-MB-435
SR leukemia = tested on: SR leukemia
HOP-62 NSCLC = tested on: HOP-62 NSCLC
HS 578T breast = tested on: HS 578T breast
A549 NSCLC = tested on: A549 NSCLC
IGROV1 ovarian = tested on: IGROV1 ovarian
UO-31 renal = tested on: UO-31 renal
CCRF-CEM leukemia = tested on: CCRF-CEM leukemia
SK-OV-3 ovarian = tested on: SK-OV-3 ovarian
U251 CNS = tested on: U251 CNS
HT29 colon = tested on: HT29 colon
NCI/ADR-RES ovarian = tested on: NCI/ADR-RES ovarian

| Structure (SMILES) | TGI (EKVX NSCLC) [µM] | TGI (K-562 leukemia) [µM] | TGI (SF-539 CNS) [µM] | TGI (MDA-MB-435) [µM] | TGI (SR leukemia) [µM] | TGI (HOP-62 NSCLC) [µM] | TGI (HS 578T breast) [µM] | TGI (A549 NSCLC) [µM] | TGI (IGROV1 ovarian) [µM] | TGI (UO-31 renal) [µM] | TGI (CCRF-CEM leukemia) [µM] | TGI (SK-OV-3 ovarian) [µM] | TGI (U251 CNS) [µM] | TGI (HT29 colon) [µM] | TGI (NCI/ADR-RES ovarian) [µM] |
| --- | --- | --- | --- | --- | --- | --- | --- | --- | --- | --- | --- | --- | --- | --- | --- |
| CCCCCCCCC/C=C1/CC(CO)(COC(=O)c2ccccc2)OC1=O (centres undefined) | 28.2 | 22.5 | 34.8 | 23.3 | 54 | 19 | 13 | 26.7 | 29.6 | 27.2 | 28.7 | 36 | 27.1 | 31.6 | 28.8 |
| COC1=CC(=O)C2=C(C[C@@]3(C)C(=C2)C(CO)=CC[C@H]3O)C1=O | 38.8 | 24 | 34.7 | 41.2 |  | 49.6 | > 100 | > 100 | 31.7 | 39.5 | 38.4 | > 100 | 41.6 | > 100 | 56.1 |
| Nc1nc(=S)n(-c2ccc(Cl)cc2)c2nc3ccccc3cc12 | > 100 | > 100 |  | > 100 | > 100 | > 100 | > 100 | > 100 | > 100 | > 100 | > 100 | > 100 | > 100 | > 100 | > 100 |
| NC(Cc1ccc(B(O)O)cc1)C(=O)NC(CO)CO (centres undefined) | > 100 | > 100 | > 100 | > 100 | > 100 | > 100 | > 100 | > 100 | > 100 | > 100 | > 100 | > 100 | > 100 | > 100 | > 100 |
| COc1ccc(/C=C/C(=O)c2ccc(OC(=O)/C=C/c3ccccc3)cc2)cc1 | > 92.2 | > 100 | > 53.5 | > 100 | 16.9 | > 100 | > 100 | > 100 | > 77.7 | > 91.5 | 21.5 | > 100 | > 100 | 39.6 | > 100 |
| Cc1cc2nc(N3C(=O)/C(=C/c4ccc(N(C)C)cc4)N=C3c3ccccc3)sc2cc1C | > 100 | > 100 | 53.4 | 51 | 41.3 | > 100 | > 100 | > 100 | > 100 | 87.4 | 34 | > 100 | > 100 | 44.2 | > 100 |
| CC(=O)OCC1OC(n2nc(Cc3ccccc3)c(=S)[nH]c2=S)C(OC(C)=O)C(OC(C)=O)C1OC(C)=O (centres undefined) |  | > 100 | 67.8 | 36.7 | > 100 | 51.4 | 45.4 | > 100 | 45.7 | 51.7 |  | > 100 | 73.4 | > 100 | > 100 |
| COC(=O)C1=NN2c3ccccc3CN([C@@H](C)c3ccccc3)C(=O)[C@@H]2[C@H]1c1ccccc1 | > 100 | > 100 | > 100 | > 100 | > 100 | > 100 | > 100 | > 100 |  | > 100 | > 100 | > 100 | > 100 | > 100 | > 100 |
| CCCCc1ccc(C#CC#Cc2ccc(CCCC)s2)s1 | > 100 |  | > 100 | > 100 | > 100 | > 100 | > 100 |  | > 100 | > 100 | > 100 | > 100 | > 100 | > 100 | > 100 |
| O=C(C/C=C/c1ccccc1)c1ccccc1 | > 100 |  | 56.6 | 42.5 | 49.9 | 73.7 | 58.6 | 26 | > 100 | 28.2 | 64.8 | > 100 | 29.9 | 65.5 | 33.7 |
| CCOC(=O)C(CCc1ncnc2c1ncn2Cc1ccccc1)(CCc1ncnc2c1ncn2Cc1ccccc1)C(=O)OCC | > 100 | > 100 | 94.6 | > 100 | > 100 | > 100 | > 100 | > 100 | > 100 | 10.9 |  |  | > 100 | > 100 | > 100 |
| NC(=O)C(=CNC(=S)Nc1cccc(C(F)(F)F)c1)C(N)=O |  | > 100 | > 100 | > 100 | > 100 | > 100 | > 100 | > 100 |  | > 100 | > 100 | > 100 | > 100 | > 100 | > 100 |
| Cc1cccc2c1c(=O)c1c(O)cc(O)cc1n2C | > 100 | > 100 | > 100 | > 100 | > 100 | > 100 | > 100 | > 100 | > 100 |  | > 100 | > 100 | > 100 | > 100 | > 100 |
| COC1/C=C/C(C)C(C(C)C(OC)C(C)CCC(=O)C(C)C(CC(=O)O)OC)OC(=O)/C=C/C=C(\C)CC(OC)CC2=CC(=O)O[C@H](C2)C(C)C(OC)CC(OC)/C=C/C(C)C(OC)C1 (some centres undefined) | > 4.35 | > 4.35 |  | > 4.35 | > 4.35 | > 4.35 | 0.387 | > 4.35 | 0.435 | 1.22 | > 4.35 | > 4.35 | > 4.35 | > 4.35 | > 4.35 |
| Cc1c(F)c(NC(=O)CN(C)C)c2c(=O)cc(-c3ccc(NC(=O)CN(C)C)c(F)c3)oc2c1F |  | 37.5 | 31.2 | 26.5 | 6.15 | 32.5 | 56.5 | 35.6 | 32.1 | 26.9 | 57 | 30.5 | 27.2 | 33.8 | 39.6 |
| CCCCCCCCOC(=O)c1cc([N+](=O)[O-])c(Sc2ncnc3nc[nH]c23)c([N+](=O)[O-])c1 | 26.8 | 7.8 | 5.8 | > 38.4 |  | 21.8 | 70.9 | 27.3 | 16 | 19.9 | 2.68 | 25.3 | 17.3 | 4.87 | 25.7 |
